Experimental data as given in the NIST ThermoML archive (doi:10.1016/j.jct.2013.09.039).

Details: Liquid, Vibrating tube method

Cc1ccc(C)cc1 [1,4-dimethylbenzene]
mass density [kg/m3]
Details	100 kPa	5000 kPa	10000 kPa	20000 kPa	30000 kPa	40000 kPa
288.15 K	864.9	868.3	871.8	878.1	884	889.7
298.15 K	856.2	860.2	863.5	870.1	876.5	882.2
308.15 K	847.5	851.4	855.2	862.1	868.6	874.8
